Converted amounts (≈) assume the structure as drawn. Read-outs that look alike come from different tables or passages of the source. A value given as a limit tells only on which side of the number the result lay.

By MIC is commonly meant the lowest concentration found to suppress growth. What is called inhibition is the share of the control response that was lost under treatment. Usually MFC stands for the smallest concentration meeting the test's criterion for killing the fungus.

Common to all, as to format: cell-based
For assay [1], the system named is different species that cause CBM. The assay can be described thus: MIC determination of hit drugs, stated over the panel of CBM agents. The text has this: In this study, eight fungal isolates obtained from the Fiocruz Pathogenic Fungi Collection (CFP) and the American Type Culture Collection (ATCC®) were used. Fonsecaea pedrosoi (CFP 00791) was used throughout the study. This species is one of the main CBM agents worldwide. Cladophialophora carrionii (CFP 00910), Phialophora verrucosa (CFP 00937), Fonsecaea monophora (CFP 00911), Fonsecaea nubica (CFP 00912), Rhinocladiela similis (CFP 00790), Exophiala heteromorpha (ATCC® 28180), and Exophiala dermatitidis (ATCC® 28869) were used to determine the minimum inhibitory concentration (MIC) and in synergism assays. Strains were maintained on potato dextrose agar (PDA) (Sigma Chemical Corporation, St. Louis, MO, USA). Seven-day cultures incubated at 30 °C were used in the assays.
(§1) Minimum inhibitory concentrations (MICs) were determined using the method proposed by the European Committee on Antimicrobial Susceptibility Testing (EUCAST), with minor modifications. Hit drugs were serially diluted (80 μM to 0.15625 μM) in RPMI 1640 (twice concentrated, pH 7; supplemented with 2% glucose) buffered with MOPS in 96-well plates. The inoculums of all strains were prepared following the EUCAST protocol. Plates were incubated at 35 °C for 72–96 h. The MIC of the NCC substances was determined as the lowest concentration capable of inhibiting 100% of fungal growth when compared to the growth control well. MIC values were determined in duplicate.

The test system of assay [2] is Fonsecaea pedrosoi (CFP 00791). The assay is described as follows: NIH Clinical Collection screening for antifungal activity (growth inhibition, OD 530 nm). Conditions: 10 µM, CFP00791 Fonsecaea pedrosoi isolate, 72–96 h; for inhibition at 10 µM: read-out: % Growth Inhibition. How it is done: These substances are part of the NIH Roadmap Molecular Libraries Screening Centers Network screening library, a collection of chemically diverse substances in Phase I-III clinical trials. Each substance was initially diluted to 1 mM in DMSO and stored at −20 °C until use. […] The final DMSO concentration corresponded to 0.5% v/v. The inoculum was prepared according to the protocol for filamentous fungi proposed by the European Committee on Antimicrobial Susceptibility Testing—EUCAST, with minor modifications. […] After growth, conidia were suspended in 3 mL of sterile distilled water with 0.1% Tween 20, vortexed, and the concentration adjusted to the 0.5 McFarland scale. The suspension was then diluted 1:10 in order to obtain a final working inoculum at 2–5 × 10^5 CFU/mL. Next, 100 µL of the inoculum was added to each well and the plates incubated at 35 °C for 72–96 h. Negative and positive controls consisted of culture medium alone and drug-free culture medium with the fungal inoculum previously described, respectively. Plates were read using a microplate reader (Epoch, Biotek, Wenusky, VT, USA) with a 530 nm filter to obtain the optical density. All plates were also visually read to confirm the equipment data. A calculation was performed to obtain the percentage of inhibition of fungal growth, according to the formula: (1 − (OD1/OD2)) × 100, where OD1 = optical density of the fungus in the presence of the drug; and OD2 = optical density of the growth control drug-free well.

In assay [3] the test system is Fonsecaea nubica (CFP 00912). The assay is described as follows: MIC determination (EUCAST, minor modifications). The note with it: F. nubica; for MIC: 100% growth inhibition, read-out: MIC. Here is the method:
as §1

Assay [4] deals with Phialophora verrucosa (CFP 00937). The assay is described as follows: MIC determination (EUCAST, minor modifications). The note with it: P. verrucosa. How it is done:
as §1

The subject of assay [5] is Fonsecaea pedrosoi (CFP 00791). The assay is described as follows: MIC determination (EUCAST, minor modifications). The note with it: F. pedrosoi. How it is done:
as §1

Assay [6] deals with Exophiala heteromorpha (ATCC 28180). The assay can be described thus: MIC determination (EUCAST, minor modifications). The note with it: E. heteromorpha. How it is done: as §1
Assay [7] deals with Rhinocladiela similis (CFP 00790). The assay is described as follows: MIC determination (EUCAST, minor modifications). Conditions: R. similis. Here is the method:
as §1

Assay [8] has as its system Exophiala dermatitidis (ATCC 28869). The assay is described as follows: MIC determination (EUCAST, minor modifications). The note with it: E. dermatitidis. How it is done:
as §1

The subject of assay [9] is Cladophialophora carrionii (CFP 00910). The assay is described as follows: MIC determination (EUCAST, minor modifications). The note with it: C. carrionii. How it is done: as §1
Assay [10] deals with Fonsecaea monophora (CFP 00911). The assay can be described thus: MIC determination (EUCAST, minor modifications). Conditions: F. monophora. Here is the method: as §1
Assay [11] concerns Cladophialophora carrionii (CFP 00910). The assay is described as follows: Minimum fungicidal concentration determination. Conditions: C. carrionii. How it is done:
The MFC was determined as the lowest drug concentration without fungal growth on Sabouraud agar after five days of incubation at 35 °C.

For assay [12], the system named is Fonsecaea nubica (CFP 00912). The assay can be described thus: Minimum fungicidal concentration determination. The note with it: F. nubica. How it is done: (§2) Minimum fungicidal concentration (MFC) was determined in triplicate by transferring a 5 μL aliquot from each well without fungal growth of the microdilution plates used for MIC determination, as described above, onto 2% glucose Sabouraud agar (Sigma Chemical Corporation). The MFC was determined as the lowest drug concentration without fungal growth on Sabouraud agar after five days of incubation at 35 °C. When the MFC/MIC ratio of a hit drug was 1 or 2, the substance was considered fungicidal against the pathogen. If this ratio was greater than 2, the hit drug was considered to be fungistatic.

In assay [13] the test system is Phialophora verrucosa (CFP 00937). The assay is described as follows: Minimum fungicidal concentration determination. The note with it: P. verrucosa. How it is done: as §2
In assay [14] the test system is Fonsecaea pedrosoi (CFP 00791). The assay can be described thus: Minimum fungicidal concentration determination. The note with it: F. pedrosoi. Here is the method: as §2
Assay [15] concerns Exophiala heteromorpha (ATCC 28180). The assay can be described thus: Minimum fungicidal concentration determination. Conditions: E. heteromorpha. Here is the method: as §2
Assay [16] concerns Rhinocladiela similis (CFP 00790). The assay is described as follows: Minimum fungicidal concentration determination. Conditions: R. similis. Here is the method: as §2
Assay [17] deals with Exophiala dermatitidis (ATCC 28869). The assay can be described thus: Minimum fungicidal concentration determination. Conditions: E. dermatitidis. Here is the method:
as §2

Assay [18] concerns Fonsecaea monophora (CFP 00911). The assay is described as follows: Minimum fungicidal concentration determination. Conditions: F. monophora. Here is the method:
as §2

Setting [19] is: different species that cause CBM, highest concentration tested 80 µM, read-out: MIC.

Consider `COCCCOc1ccnc(C[S+]([O-])c2nc3ccccc3[nH]2)c1C` (centres unmarked) [Rabeprazole], for which the MIC in [1] (setting [19]) was above 80 µM. For the same compound, in assay [2], the inhibition at 10 µM amounted to 61%.

With `CN(C)CC/C=C1/c2ccccc2COc2ccc(CC(=O)O)cc21` [Olopatadine (Patanol), Olopatadine], in assay [2], the inhibition at 10 µM was determined as 85%.

Consider `C=CC[C@@H]1/C=C(\C)C[C@H](C)C[C@H](OC)[C@H]2O[C@@](O)(C(=O)C(=O)N3CCCC[C@H]3C(=O)O[C@H](/C(C)=C/[C@@H]3CC[C@@H](O)[C@H](OC)C3)[C@H](C)[C@@H](O)CC1=O)[C@H](C)C[C@@H]2OC` [Tacrolimus], for which the inhibition at 10 µM in [2] was 89%.

On to `CN[C@H]1CC[C@@H](c2ccc(Cl)c(Cl)c2)c2ccccc21` [Sertraline], for which the MIC in assay [1] (setting [19]) lay in the range of 10 to 40 µM.

As for `OCCN1C[C@H](O)[C@@H](O)[C@H](O)[C@H]1CO` [Miglitol], the MIC in [1] (setting [19]) is above 80 µM. Further, the inhibition at 10 µM in assay [2] was found to be 90%.

For `Nc1nc(=O)[nH]cc1F` [5-Fluorocytosine], in [2], the inhibition at 10 µM was determined as 68%.

Regarding `O=C(NCC1CCCCN1)c1cc(OCC(F)(F)F)ccc1OCC(F)(F)F` (centres unmarked) [Flecainide Acetate], the inhibition at 10 µM in assay [2] came out at 95%.

For `CN1CCCCC1CCN1c2ccccc2Sc2ccc([S+](C)[O-])cc21` (centres unmarked) [Mesoridazine (Serentil), Mesoridazine], in assay [2], the inhibition at 10 µM amounted to 86%.

For the compound `CN1C(=O)CC[C@H]1c1cccnc1` [Cotinine (nicotine), Cotinine], the MIC in assay [1] (setting [19]) is above 80 µM. Further, the inhibition at 10 µM in [2] amounted to 71%.

Take `Clc1ccc(COC(Cn2ccnc2)c2ccc(Cl)cc2Cl)cc1` (centres unmarked) [Econazole nitrate]: the inhibition at 10 µM in [2] was found to be 94%.

`CCCCCCNC(=O)n1cc(F)c(=O)[nH]c1=O` [Carmofur]: the inhibition at 10 µM in assay [2] was 100%.

For `Clc1ccc(COC(Cn2ccnc2)c2ccc(Cl)cc2Cl)c(Cl)c1` (centres unmarked) [Miconazole nitrate], the inhibition at 10 µM in assay [2] is 99%.

For the compound `O=c1[nH]cc(F)c(=O)[nH]1` [5-Fluorouracil], the inhibition at 10 µM in assay [2] was 85%.

Consider `C[C@H](N[C@@H](CCc1ccccc1)C(=O)O)C(=O)N1CCC[C@H]1C(=O)O` [Enalaprilat], for which the minimal inhibitory concentration (MIC) entry in assay [1] (different species that cause CBM, highest concentration tested 80 µM) is reported as “above 80 µM”. Also, in [2], the “% Growth Inhibition” value is recorded as 67%.

Consider `CCC(C)n1ncn(-c2ccc(N3CCN(c4ccc(OCC5COC(Cn6cncn6)(c6ccc(Cl)cc6Cl)O5)cc4)CC3)cc2)c1=O` (centres unmarked) [itraconazole], for which the inhibition at 10 µM in assay [2] is 100%.

For the compound `c1ccc2[nH]c(-c3cscn3)nc2c1` [Thiabendazole], the “Selectivity Index (SI)” value in assay [3] (CC50 Vero 24 h / MIC) is listed as 99.50; in [4] (CC50 Vero 24 h / MIC), 99.50; in [5] (CC50 Vero 24 h / MIC), 99.50; in assay [6] (CC50 Vero 24 h / MIC), 49.75; in assay [7] (CC50 Vero 24 h / MIC), 49.75; in assay [8] (CC50 Vero 24 h / MIC), 49.75. Moreover, the “Selectivity Index (SI)” value in assay [9] (CC50 Vero 24 h / MIC) and in [10] (CC50 Vero 24 h / MIC) was 99.50 in each case. Besides, the minimum inhibitory concentration (MIC) was determined as 5 µM (≈ 1.01 µg/mL) in assay [3] (Fonsecaea nubica); 5 µM (≈ 1.01 µg/mL) in assay [4] (Phialophora verrucosa, 100% growth inhibition, read-out: MIC); 5 µM (≈ 1.01 µg/mL) in assay [5] (Fonsecaea pedrosoi, 100% growth inhibition, read-out: MIC); 10 µM (≈ 2.01 µg/mL) in assay [6] (Exophiala heteromorpha, ATCC28180, 100% growth inhibition, read-out: MIC); 10 µM (≈ 2.01 µg/mL) in [7] (100% growth inhibition, read-out: MIC); 10 µM (≈ 2.01 µg/mL) in [8] (Exophiala dermatitidis, ATCC28869, 100% growth inhibition, read-out: MIC). Also, the MIC amounted to 5 µM (≈ 1.01 µg/mL) in assay [9] (Cladophialophora carrionii, 100% growth inhibition, read-out: MIC) and 5 µM (≈ 1.01 µg/mL) in [10] (Fonsecaea monophora, 100% growth inhibition, read-out: MIC). The “MFC:MIC Ratio” value was 1 in assay [11]; 1 in [12]; 4 in assay [13]; 1 in [14]; 8 in assay [15]; 4 in assay [16]. Besides, the “MFC:MIC Ratio” value stood at 8 in assay [17] and 1 in assay [18]. In addition, the “fungicidal or fungistatic (MFC/MIC ratio)” value in assay [11] was “fungicidal (When the MFC/MIC ratio of a hit drug was 1 or 2, the substance was considered fungicidal)”; in [12] it was “fungicidal (When the MFC/MIC ratio of a hit drug was 1 or 2, the substance was considered fungicidal)”; in [14] it was “fungicidal (When the MFC/MIC ratio of a hit drug was 1 or 2, the substance was considered fungicidal)”; in [18] it was “fungicidal (When the MFC/MIC ratio of a hit drug was 1 or 2, the substance was considered fungicidal)”. In addition, the MFC amounted to 5 µM (≈ 1.01 µg/mL) in assay [11] (Cladophialophora carrionii, read-out: MFC); 5 µM (≈ 1.01 µg/mL) in [12] (Fonsecaea nubica, read-out: MFC); 20 µM (≈ 4.03 µg/mL) in [13] (Phialophora verrucosa, read-out: MFC); 5 µM (≈ 1.01 µg/mL) in assay [14] (Fonsecaea pedrosoi, read-out: MFC); 80 µM (≈ 16.1 µg/mL) in assay [15] (Exophiala heteromorpha, ATCC28180, read-out: MFC); 40 µM (≈ 8.05 µg/mL) in assay [16] (read-out: MFC). For the same compound, the MFC is 80 µM (≈ 16.1 µg/mL) in [17] (Exophiala dermatitidis, ATCC28869, read-out: MFC) and 5 µM (≈ 1.01 µg/mL) in assay [18] (Fonsecaea monophora, read-out: MFC). In [2], the inhibition at 10 µM came out at 82%.

As for `O=c1[nH]c(=O)n([C@H]2C[C@H](O)[C@@H](CO)O2)cc1F` [Floxuridine], the MIC in [1] (CBM agents except the Fonsecaea nubica isolate, read-out: MIC) was above 80 µM; in assay [3], 0.3125 µM (≈ 0.0769 µg/mL). Besides, the inhibition at 10 µM in assay [2] came to 86%.

On to Medroxyprogesterone, for which the “% Growth Inhibition” value in assay [2] came to 91%.

As to `CC(=O)NC[C@H]1CN(c2ccc(N3CCOCC3)c(F)c2)C(=O)O1` [Linezolid], the minimum inhibitory concentration (MIC) in assay [1] (setting [19]) is above 80 µM. In addition, the inhibition at 10 µM in assay [2] turned out to be 87%.

The values above are taken from PMC10381309 (Journal of Fungi, 2023).
